{"source": "ChEMBL document CHEMBL4811256", "about": "“Synthesis and evaluation of multi-target-directed ligands with BACE-1 inhibitory and Nrf2 agonist activities as potential agents against Alzheimer's disease” (Eur J Med Chem, 2021)", "key": {"[1]": {"system": "PC-12", "assay": "Cytoprotective activity against H2O2- induced cell death in rat PC-12 cells assessed as increase in viable cells at 10 uM pretreated for 12 hrs followed by H2O2 challenge by MTT assay relative to control", "assay_type": "functional"}, "[2]": {"system": "PC-12", "assay": "Cytoprotective activity against H2O2- induced cell death in rat PC-12 cells assessed as increase in viable cells pretreated for 12 hrs followed by H2O2 challenge by MTT assay", "assay_type": "functional, cell-based", "details": "dose 2.5-10 µM"}, "[3]": {"biological_target": "T1, Nuclear factor erythroid 2-related factor 2 (Mus musculus) (UniProt Q60795)", "T1 sequence (whole entry)": "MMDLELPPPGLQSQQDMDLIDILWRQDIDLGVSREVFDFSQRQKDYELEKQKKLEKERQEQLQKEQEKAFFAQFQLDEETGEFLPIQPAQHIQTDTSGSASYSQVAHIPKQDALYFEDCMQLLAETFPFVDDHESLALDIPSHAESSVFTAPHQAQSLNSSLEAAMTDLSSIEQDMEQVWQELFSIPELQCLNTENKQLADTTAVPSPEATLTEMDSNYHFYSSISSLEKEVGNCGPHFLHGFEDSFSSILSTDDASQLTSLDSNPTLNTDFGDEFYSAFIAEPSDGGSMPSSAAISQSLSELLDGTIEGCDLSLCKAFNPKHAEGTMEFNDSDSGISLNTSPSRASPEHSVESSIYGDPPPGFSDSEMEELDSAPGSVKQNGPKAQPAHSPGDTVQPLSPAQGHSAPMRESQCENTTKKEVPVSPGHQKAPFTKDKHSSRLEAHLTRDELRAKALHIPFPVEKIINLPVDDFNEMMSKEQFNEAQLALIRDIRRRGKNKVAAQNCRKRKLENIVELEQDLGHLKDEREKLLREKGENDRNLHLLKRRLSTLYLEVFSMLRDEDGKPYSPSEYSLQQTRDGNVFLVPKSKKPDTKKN", "assay": "Activation of Nrf2 in mouse BV-2 cells assessed as upregulation of HO-1 protein expression after 24 hrs by Western blot analysis", "assay_type": "cell-based", "details": "filed as activator, dose 2.5-10 µM"}, "[4]": {"system": "PC-12", "assay": "Protection against 6-OHDA-induced apoptosis in rat PC-12 cells assessed as necrotic cells at 2.5 uM pretreated for 12 hrs followed by 6-OHDA challenge by annexin V FITC/propidium iodide staining based flow cytometry (reference value: 3.7 %)", "assay_type": "functional"}, "[5]": {"system": "BV-2", "assay": "Antiinflammatory activity in mouse BV-2 cells transfected with Nrf2 siRNA assessed as inhibition of LPS-induced IL-6 production at 10 uM pretreated with compound for 2 hrs followed by LPS stimulation and further incubated for 18 hrs", "assay_type": "functional, cell-based", "details": "time 20.0 hrs"}, "[6]": {"system": "PC-12", "assay": "Protection against 6-OHDA-induced mitochondrial dysfunction in rat PC-12 cells assessed as change in mitochondrial membrane potential at 2.5 uM pretreated with compound for 12 hrs followed by 6-OHDA challenge by JC-1 staining based flow cytometry (reference value: 56 %)", "assay_type": "functional"}, "[7]": {"system": "PC-12", "assay": "Protection against H2O2-induced apoptosis in rat PC-12 cells assessed as viable cells at 5 uM pretreated for 12 hrs followed by H2O2 challenge by annexin V FITC/propidium iodide staining based flow cytometry (reference value: 73.3 %)", "assay_type": "functional", "details": "read-out: Activity"}, "[8]": {"assay": "Binding affinity to N-Acetyl-L-cysteine assessed ascompound-NAC covalent adduct formation measured after 3 hrs by Q-TOF mass spectroscopy"}, "[9]": {"system": "PC-12", "assay": "Protection against 6-OHDA-induced apoptosis in rat PC-12 cells assessed as late apoptotic cells at 5 uM pretreated for 12 hrs followed by 6-OHDA challenge by annexin V FITC/propidium iodide staining based flow cytometry (reference value: 17.3 %)", "assay_type": "functional"}, "[10]": {"system": "PC-12", "assay": "Protection against 6-OHDA-induced apoptosis in rat PC-12 cells assessed as viable cells at 5 uM pretreated for 12 hrs followed by 6-OHDA challenge by annexin V FITC/propidium iodide staining based flow cytometry (reference value: 76.7 %)", "assay_type": "functional", "details": "read-out: Activity"}, "[11]": {"system": "PC-12", "assay": "Cytoprotective activity against H2O2-induced oxidative stress in rat PC-12 cells assessed as decrease in cell death at 10 uM pretreated with brusatol for 1 hr followed by compound treatment for 12 hrs and subsequent H2O2 challenge by MTT assay", "assay_type": "functional, cell-based"}, "[12]": {"system": "PC-12", "assay": "Protection against H2O2-induced apoptosis in rat PC-12 cells assessed as late apoptic cells at 5 uM pretreated for 12 hrs followed by H2O2 challenge by annexin V FITC/propidium iodide staining based flow cytometry (reference value: 20.8 %)", "assay_type": "functional"}, "[13]": {"system": "PC-12", "assay": "Protection against 6-OHDA-induced apoptosis in rat PC-12 cells assessed as early apoptotic cells at 10 uM pretreated for 12 hrs followed by 6-OHDA challenge by annexin V FITC/propidium iodide staining based flow cytometry (reference value: 2.4 %)", "assay_type": "functional"}, "[14]": {"system": "PC-12", "assay": "Protection against H2O2-induced apoptosis in rat PC-12 cells assessed as early apoptic cells at 10 uM pretreated for 12 hrs followed by H2O2 challenge by annexin V FITC/propidium iodide staining based flow cytometry (reference value: 2.2 %)", "assay_type": "functional"}, "[15]": {"system": "PC-12", "assay": "Protection against H2O2-induced apoptosis in rat PC-12 cells assessed as necrotic cells at 2.5 uM pretreated for 12 hrs followed by H2O2 challenge by annexin V FITC/propidium iodide staining based flow cytometry (reference value: 3.7 %)", "assay_type": "functional"}, "[16]": {"system": "BV-2", "assay": "Antiinflammatory activity in mouse BV-2 cells transfected with Nrf2 siRNA assessed as inhibition of LPS-induced NO production at 10 uM pretreated with compound for 2 hrs followed by LPS stimulation and further incubated for 18 hrs", "assay_type": "functional, cell-based", "details": "time 20.0 hrs"}, "[17]": {"system": "PC-12", "assay": "Activation of Keap1-Nrf2-ARE pathway in rat PC-12 assessed as upregulation of TrxR1 protein expression at 10 uM measured after 6 to 24 hrs by Western blot analysis", "details": "filed as activator, time 6-24 hrs"}, "[18]": {"system": "PC-12", "assay": "Cytoprotective activity against 6-OHDA induced cell death in rat PC-12 cells assessed as increase in viable cells at 10 uM pretreated for 12 hrs followed by 6-OHDA challenge by MTT assay relative to control", "assay_type": "functional"}, "[19]": {"system": "PC-12", "assay": "Protection against 6-OHDA-induced apoptosis in rat PC-12 cells assessed as necrotic cells at 10 uM pretreated for 12 hrs followed by 6-OHDA challenge by annexin V FITC/propidium iodide staining based flow cytometry (reference value: 3.7 %)", "assay_type": "functional"}, "[20]": {"system": "PC-12", "assay": "Protection against H2O2-induced apoptosis in rat PC-12 cells assessed as late apoptic cells at 10 uM pretreated for 12 hrs followed by H2O2 challenge by annexin V FITC/propidium iodide staining based flow cytometry (reference value: 20.8 %)", "assay_type": "functional"}, "[21]": {"system": "PC-12", "assay": "Neuroprotective activity against H2O2-induced cell damage in rat PC-12 cells assessed as decrease in cell death at 10 uM pretreated for 12 hrs followed by H2O2 challenge by MTT assay", "assay_type": "functional, cell-based"}, "[22]": {"system": "PC-12", "assay": "Cytotoxicity against rat PC-12 cells at 25 uM incubated for 24 hrs by MTT assay", "assay_type": "cell-based", "details": "pc-12, 24 h"}, "[23]": {"system": "PC-12", "assay": "Protection against 6-OHDA-induced apoptosis in rat PC-12 cells assessed as late apoptotic cells at 2.5 uM pretreated for 12 hrs followed by 6-OHDA challenge by annexin V FITC/propidium iodide staining based flow cytometry (reference value: 17.3 %)", "assay_type": "functional"}}, "note": "The source made the active and inactive calls. The calls are words filed in the database; no cut-off is given here."}
{"compound": "CN1C(N)=N[C@](C)(c2cc(-n3[se]c4cc(F)ccc4c3=O)ccc2F)CS1(=O)=O", "values": [{"measurement": "Activity", "setting": "[1]", "value": 80, "unit": "%"}, {"measurement": "Activity", "setting": "[2]", "value": "Dose-Dependent Effect"}, {"measurement": "Activity", "setting": "[3]", "value": "Dose-Dependent Effect"}, {"measurement": "Activity", "setting": "[4]", "value": 3.3, "unit": "%"}, {"measurement": "Activity", "setting": "[5]", "value": "inactive"}, {"measurement": "Activity", "setting": "[6]", "value": 61.2, "unit": "%"}, {"measurement": "viability at 5 µM", "setting": "[7]", "value": 89, "unit": "%"}, {"measurement": "Activity", "setting": "[8]", "value": "Active"}, {"measurement": "Activity", "setting": "[9]", "value": 11.8, "unit": "%"}, {"measurement": "viability at 5 µM", "setting": "[10]", "value": 83.4, "unit": "%"}, {"measurement": "Activity", "setting": "[11]", "value": "inactive"}, {"measurement": "Activity", "setting": "[12]", "value": 8.1, "unit": "%"}, {"measurement": "Activity", "setting": "[13]", "value": 1.4, "unit": "%"}, {"measurement": "Activity", "setting": "[14]", "value": 2.1, "unit": "%"}, {"measurement": "Activity", "setting": "[15]", "value": 2.1, "unit": "%"}, {"measurement": "Activity", "setting": "[16]", "value": "inactive"}, {"measurement": "Activity", "setting": "[17]", "value": "Active"}, {"measurement": "Activity", "setting": "[18]", "value": 77, "unit": "%"}, {"measurement": "Activity", "setting": "[19]", "value": 1.4, "unit": "%"}, {"measurement": "Activity", "setting": "[20]", "value": 4.7, "unit": "%"}, {"measurement": "Activity", "setting": "[21]", "value": "Active"}, {"measurement": "Activity", "setting": "[22]", "value": "Non-Toxic"}, {"measurement": "Activity", "setting": "[23]", "value": 14.9, "unit": "%"}]}
